How the values were obtained:
Format in all cases: in vivo
Conditions in all cases: 250 g/ha unless otherwise stated, evaluated after 13 days, five-point scale
[1] = tested on: Setaria faberi (SETFA); assay: Test 1 glasshouse herbicide test, post-emergence application (Table B1)
Description: (§1) Seeds of a variety of test species are sown in standard soil in pots (Lolium perenne (LOLPE), Solanum nigrum (SOLNI), Amaranthus retoflexus (AMARE), Setaria faberi (SETFA), Echinochloa crus-galli (ECHCG) and Ipomoea hederacea (IPOHE)). After cultivation for one day (pre-emergence) or after 8 days cultivation (post-emergence) under controlled conditions in a glasshouse (at 24/16° C., day/night; 14 hours light; 65% humidity), the plants are sprayed with an aqueous spray solution derived from the formulation of the technical active ingredient in acetone/water (50:50) solution containing 0.5% Tween 20 (polyoxyethelyene sorbitan monolaurate, CAS RN 9005-64-5). Compounds are applied at 250 g/ha unless otherwise stated. The test plants are then grown in a glasshouse under controlled conditions in a glasshouse (at 24/16° C., day/night; 14 hours light; 65% humidity) and watered twice daily. After 13 days for pre and post-emergence, the test is evaluated for the percentage damage caused to the plant. The biological activities (% phytotoxicity) are shown in Tables B1 and B2 below using a five-point scale (5=81 to 100%; 4=61 to 80%; 3=41 to 60%; 2=21 to 40%; 1=0 to 20%).

[2] = tested on: Amaranthus retoflexus (AMARE); assay: as above
Description: as §1

[3] = tested on: Ipomoea hederacea (IPOHE); assay: as above
Description: as §1

[4] = tested on: Echinochloa crus-galli (ECHCG); assay: as above
Description: as §1

[5] = tested on: Setaria faberi (SETFA); assay: Test 1 glasshouse herbicide test, pre-emergence application (Table B2)
Description: as §1

[6] = tested on: Amaranthus retoflexus (AMARE); assay: as above
Description: as §1

[7] = tested on: Ipomoea hederacea (IPOHE); assay: as above
Description: as §1

[8] = tested on: Echinochloa crus-galli (ECHCG); assay: as above
Description: as §1

SMILES | % phytotoxicity SETFA, post-emergence application [1] | % phytotoxicity AMARE, post-emergence application [2] | % phytotoxicity IPOHE, post-emergence application [3] | % phytotoxicity ECHCG, post-emergence application [4] | % phytotoxicity SETFA, pre-emergence application [5] | % phytotoxicity AMARE, pre-emergence application [6] | % phytotoxicity IPOHE, pre-emergence application [7] | % phytotoxicity ECHCG, pre-emergence application [8]
FC(F)=C(F)CCSc1ccccc1Oc1ncc(Cl)cn1 [Compound A68] | 4 (4=61 to 80%) | 5 (5=81 to 100%) | 5 (5=81 to 100%) | 5 (5=81 to 100%) | 5 (5=81 to 100%) | 5 (5=81 to 100%) | 4 (4=61 to 80%) | 5 (5=81 to 100%)
CC(C)CCSc1ccccc1Oc1ncc(Cl)cn1 [Compound A70] | 4 (4=61 to 80%) | 2 (2=21 to 40%) | 4 (4=61 to 80%) | 5 (5=81 to 100%) | 5 (5=81 to 100%) | 2 (2=21 to 40%) | 1 (1=0 to 20%) | 5 (5=81 to 100%)
C=CCCSc1ccccc1Oc1ncc(Cl)cn1 [Compound A71] | 3 (3=41 to 60%) | 5 (5=81 to 100%) | 4 (4=61 to 80%) | 4 (4=61 to 80%) | 5 (5=81 to 100%) | 5 (5=81 to 100%) | 1 (1=0 to 20%) | 5 (5=81 to 100%)
CC(C)CSc1ccccc1Oc1ncc(Cl)cn1 [Compound A72] | 2 (2=21 to 40%) | 3 (3=41 to 60%) | 2 (2=21 to 40%) | 3 (3=41 to 60%) | 4 (4=61 to 80%) | 4 (4=61 to 80%) | 1 (1=0 to 20%) | 4 (4=61 to 80%)
O=S(=O)(CCC(F)=C(F)F)c1ccccc1Oc1ncc(Cl)cn1 [Compound A73] | 3 (3=41 to 60%) | 4 (4=61 to 80%) | 1 (1=0 to 20%) | 3 (3=41 to 60%) | 4 (4=61 to 80%) | 5 (5=81 to 100%) | 1 (1=0 to 20%) | 5 (5=81 to 100%)
CC(C)CCS(=O)(=O)c1ccccc1Oc1ncc(Cl)cn1 [Compound A75] | 2 (2=21 to 40%) | 2 (2=21 to 40%) | 2 (2=21 to 40%) | 3 (3=41 to 60%) | 4 (4=61 to 80%) | 5 (5=81 to 100%) | 1 (1=0 to 20%) | 4 (4=61 to 80%)
CC(C)CS(=O)(=O)c1ccccc1Oc1ncc(Cl)cn1 [Compound A76] | 1 (1=0 to 20%) | 1 (1=0 to 20%) | 2 (2=21 to 40%) | 2 (2=21 to 40%) | 4 (4=61 to 80%) | 5 (5=81 to 100%) | 2 (2=21 to 40%) | 3 (3=41 to 60%)
CCCCCCS(=O)(=O)c1ccccc1Oc1ncc(Cl)cn1 [Compound A77] | 1 (1=0 to 20%) | 2 (2=21 to 40%) | 1 (1=0 to 20%) | 1 (1=0 to 20%) | 1 (1=0 to 20%) | 4 (4=61 to 80%) | 1 (1=0 to 20%) | 3 (3=41 to 60%)
O=S(=O)(CCCF)c1ccccc1Oc1ncc(Cl)cn1 [Compound A82] | 1 (1=0 to 20%) | 3 (3=41 to 60%) | 3 (3=41 to 60%) | 1 (1=0 to 20%) | 3 (3=41 to 60%) | 5 (5=81 to 100%) | 1 (1=0 to 20%) | 3 (3=41 to 60%)
CCC(CC)CS(=O)(=O)c1ccccc1Oc1ncc(Cl)cn1 [Compound A87] | 1 (1=0 to 20%) | 1 (1=0 to 20%) | 1 (1=0 to 20%) | 1 (1=0 to 20%) | 1 (1=0 to 20%) | 1 (1=0 to 20%) | 1 (1=0 to 20%) | 1 (1=0 to 20%)
CCC(C)S(=O)(=O)c1ccccc1Oc1ncc(Cl)cn1 (stereo not shown) [Compound A88] | 1 (1=0 to 20%) | 2 (2=21 to 40%) | 1 (1=0 to 20%) | 1 (1=0 to 20%) | 5 (5=81 to 100%) | 5 (5=81 to 100%) | 2 (2=21 to 40%) | 1 (1=0 to 20%)
O=S(=O)(Cc1cccc(Cl)c1)c1ccccc1Oc1ncc(Cl)cn1 [Compound A89] | 1 (1=0 to 20%) | 3 (3=41 to 60%) | 1 (1=0 to 20%) | 1 (1=0 to 20%) | 1 (1=0 to 20%) | 1 (1=0 to 20%) | 1 (1=0 to 20%) | 1 (1=0 to 20%)
N#Cc1cccc(Oc2ncc(Cl)cn2)c1S(=O)(=O)CCCCC(F)(F)F [Compound A91] | 4 (4=61 to 80%) | 5 (5=81 to 100%) | 4 (4=61 to 80%) | 5 (5=81 to 100%) | 5 (5=81 to 100%) | 5 (5=81 to 100%) | 5 (5=81 to 100%) | 5 (5=81 to 100%)
N#Cc1cccc(Oc2ncc(Cl)cn2)c1S(=O)(=O)CCCCCC(F)(F)F [Compound A92] | 2 (2=21 to 40%) | 5 (5=81 to 100%) | 2 (2=21 to 40%) | 3 (3=41 to 60%) | 4 (4=61 to 80%) | 5 (5=81 to 100%) | 1 (1=0 to 20%) | 4 (4=61 to 80%)
FC(F)CCSc1c(Cl)cccc1Oc1ncc(Cl)cn1 [Compound A94] | 5 (5=81 to 100%) | 5 (5=81 to 100%) | 3 (3=41 to 60%) | 5 (5=81 to 100%) | 5 (5=81 to 100%) | 5 (5=81 to 100%) | 3 (3=41 to 60%) | 5 (5=81 to 100%)
[O-][S+](CCC(F)F)c1c(Cl)cccc1Oc1ncc(Cl)cn1 (stereo not shown) [Compound A95] | 1 (1=0 to 20%) | 4 (4=61 to 80%) | 4 (4=61 to 80%) | 2 (2=21 to 40%) | 5 (5=81 to 100%) | 5 (5=81 to 100%) | 5 (5=81 to 100%) | 5 (5=81 to 100%)
O=S(=O)(CCC(F)F)c1c(Cl)cccc1Oc1ncc(Cl)cn1 [Compound A96] | 5 (5=81 to 100%) | 5 (5=81 to 100%) | 5 (5=81 to 100%) | 5 (5=81 to 100%) | 5 (5=81 to 100%) | 5 (5=81 to 100%) | 5 (5=81 to 100%) | 5 (5=81 to 100%)

Reference: US20220324815A1, “2-PHENOXY-PYRIMIDINE DERIVATIVES AS HERBICIDAL COMPOUNDS” (SYNGENTA CROP PROTECTION AG, priority 2019, published 2022)
